B1: BLI-SCRM (dsDNA)
DNA 1: AAATTGTCCCGGGCCTTTCTCCGCGCGTCTGGTAACCCTTAGGATTACTC
DNA 2: GAGTAATCCTAAGGGTTACCAGACGCGCGGAGAAAGGCCCGGGACAATTT

Key:
[1] = target: T1, SRTF1 (Pimelobacter simplex, UniProt A0A0A1DUF2); assay: QD-TF-FRET, ligand-induced release of Cy5-labelled operator DNA; format: biochemical; details: sensor 3: QD/TF/DNA ratio 1:1:18, operator with 2 mutated bases in one half of palindrome, HEPES, RT; allosteric
T1 construct: gene KR76_27130; assembled on quantum dots for FRET
T1 sequence (A0A0A1DUF2 1-189): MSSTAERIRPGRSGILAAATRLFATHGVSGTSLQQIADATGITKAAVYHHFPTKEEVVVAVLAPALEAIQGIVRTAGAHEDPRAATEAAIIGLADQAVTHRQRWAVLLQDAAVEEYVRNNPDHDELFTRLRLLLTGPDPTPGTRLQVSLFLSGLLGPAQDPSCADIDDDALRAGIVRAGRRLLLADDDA

[2] = target: T2, SRTF1 (Pimelobacter simplex ATCC 6946, UniProt A0A0A1DUF2 1-189); assay: BLI; no steroid; BLI: 28 mM Tris-HCl pH 8.0, 5 mM MgCl (so in the source), 4.25% glycerol, 25 mM NaCl, 1.67 mg/mL BSA, 30 C; QD-FRET: 1x HEPES with binding buffer (5x: 25 mM MgCl2, 25% glycerol, 250 mg/L salmon sperm DNA, 0.1 M Tris-HCl), RT; details: protein: recombinant; tags: C-terminal 6xHis; chain copies: 2; label: 5' biotin on strand 1; blunt
T2 sequence: T1 sequence (A0A0A1DUF2 1-189)

Molecule | IC50 [1] [µM] | binding result [2]
C[C@]12CCC(=O)C=C1CC[C@@H]1[C@@H]2[C@@H](O)C[C@]2(C=O)[C@@H](C(=O)CO)CC[C@@H]12 [ALD, aldosterone] | 0.312 ± 0.042 | –
B1 | – | no binding

Reference: paper PMC7062782, “A progesterone biosensor derived from microbial screening” (Nature Communications, 2020)
